Experimental findings from PubChem BioAssay AID434955 (Southern Research Specialized Biocontainment Screening …, 2010) are described below.

In this assay the test system is M. tuberculosis H37Rv growth with meropenem, percent inhibition. In words: beta-lactam sensitization of Mtb H37Rv, H37Rv (AID 434955).
What is called IC90 is the concentration at which the effect reaches the 90% level. As for `CO/N=C(\C(=O)N[C@@H]1C(=O)N2C(C(=O)O)=C(COC(C)=O)CS[C@H]12)c1csc(N)n1` (stereo in doubt), the IC90 was 41.7 µM.
Consider `Cc1ccc(C)c(N2CCN(CC3CCCCC3)CC2)c1`, for which the IC90 was 52.4 µM.
For the compound `O=C(NCCC1=CCCCC1)c1ccc(Cl)c([N+](=O)[O-])c1`, the IC90 is 30.2 µM.
The value for `CC(C)C[C@H](NC(=O)c1nc[nH]c1C(=O)N1CCN(C(=O)OC(C)(C)C)CC1)C(=O)OCc1ccccc1` was 54.9 µM; that for `Cc1[nH]n(-c2ccccc2)c(=O)c1/C=N/NC(=O)c1ccoc1C` was 3.01 µM; that for `NNC(=S)NC1CC2CC1C1C=CCC21` (centres undefined) was 13.5 µM.
Consider `CCOC(=O)N1CCN(CC(=O)Nc2nnc(C(F)(F)F)s2)CC1`, for which the 90% effect concentration (IC90) was 50.1 µM.
For the compound `O=C(N/N=C/c1ccc(OC(=O)c2ccc3c(c2)OCO3)cc1)c1cncc(Br)c1`, the IC90 was 48.3 µM.
The value for `Cc1onc(NC(=O)c2ccc([N+](=O)[O-])o2)c1Br` was 16.4 µM; that for `O=C(Nc1cccc(Cl)c1N1CCOCC1)c1ccc([N+](=O)[O-])o1` was 38.2 µM; that for `Cc1cc2ccccc2n1CCNC(=O)COc1ccccc1` was 42.8 µM.
As to `O=C(Nc1ccc2nc3n(c(=O)c2c1)CCCC3)c1cc([N+](=O)[O-])ccc1F`, the IC90 was 91 µM.
The value for `Cc1cccc(-n2nc([N+](=O)[O-])c(=NC3CCN(Cc4ccccc4)CC3)n2O)c1` was 30.5 µM.
Consider `CC(C)(C)c1ccc(OCc2ccc(C(=O)N/N=C3\CC4CC=CC34)cc2)cc1` (centres undefined), for which the IC90 is 45.3 µM.
The value for `CCOC(=O)c1nc(N2CCN(C(=O)OCC)CC2)c2c3c(sc2n1)CCCC3` was 40.9 µM; that for `O=C(CN1C(=O)c2cccc([N+](=O)[O-])c2C1=O)N1CCN(c2ccc(F)cc2)CC1` was 74.5 µM.
The value for `C=CCc1cc(Cl)ccc1OCCCNC(C)CC` (centres undefined) was 51.3 µM; that for `Cc1cc(C=C2C(=O)NC(=S)NC2=O)c(C)n1-c1ccc2c(c1)OCO2` was 14.5 µM.
With `COc1ccc(-c2csc(NC(CO)c3nc4ccccc4n3Cc3ccc(C)cc3)n2)cc1` (centres undefined), the IC90 is 26.4 µM.
The value for `O=C(N/N=C/c1ccc([N+](=O)[O-])o1)c1ccccc1-n1cccc1` was 29.4 µM.
In the case of `CN(C)/N=C/c1ccc(/C=N/NC(N)=S)o1`, the IC90 was 43.3 µM.
As to `c1ccc2c(c1)Cn1nc(Cc3nc4c(s3)CCCC4)nc1-2`, the IC90 is 53 µM.
The value for `Cc1ccc(C)c(N2CCN(CC3CC=CCC3)CC2)c1` (centres undefined) was 60.7 µM; that for `Cc1cccc(Nc2nnc(SCC(=O)Nc3ncc(C(F)(F)F)cc3Cl)s2)c1C` was 21.5 µM.
The value for `Cn1c(=O)c2ccccc2n2c(CCl)nnc12` was 4.65 µM.
The value for `Cn1c(/C=N/c2nc3ccccc3[nH]2)nc2ccccc21` was 4.17 µM; that for `Nc1ccc(N=Nc2ccccc2O)c(N)c1` was 34 µM; that for `CN1c2ccccc2C(=O)NC1c1ccc([N+](=O)[O-])s1` (centres undefined) was 33.3 µM.
For `COCCCn1c(=O)/c(=C\c2ccccc2OC(C)C)s/c1=C(/C#N)C(=O)Nc1ccc(C(=O)O)cc1`, the IC90 is 18.5 µM.
The value for `COc1cc(/C(C)=N\NC(N)=S)cc(OC)c1OC` was 19.6 µM; that for `Cn1c(SCC(=O)OC2CCCCC2)nnc1-c1ccc2c(c1)OCO2` was 34.9 µM; that for `Cc1ccccc1CSc1nnc(C)c(=O)n1N` was 32.3 µM.
The value for `C/C(=N\NC(=O)c1ccncc1)c1c(O)n(-c2ccccc2)c(=O)[nH]c1=O` was 3.94 µM.
The value for `Cc1ccccc1OCC(=O)Nc1ccccc1N1CCCCC1` was 13.5 µM; that for `COc1ccc(OC)c(-c2cc(C(=O)Nc3c(C)n(C)n(-c4ccccc4)c3=O)no2)c1` was 49.5 µM; that for `O=C1OC(/C=C/c2ccc(Cl)cc2Cl)=NC/1=C\c1cccs1` was 33.4 µM.
Regarding `O=C1OC(/C=C/c2ccccc2)=NC/1=C/c1ccco1`, the IC90 was 13.9 µM.
For the compound `CC(=O)Nc1ccc(SCC(=O)c2cc(C)n(C)c2C)cc1`, the IC90 is 53.6 µM.
The value for `O=C(COC(=O)c1ccc(Cl)cc1[N+](=O)[O-])NNC(=O)c1cccs1` was 51.1 µM; that for `O=C1COc2ccc(C(=O)/C=C/c3ccccc3)cc2N1` was 12.2 µM.
The value for `O=c1cc(C(F)(F)F)c2sc(N3CCCCC3)nc2[nH]1` was 49.3 µM.
For `CCOc1ccc(N=c2cc(-c3ccc(OC)cc3)oc3ccccc23)cc1`, the IC90 was 50.3 µM.
Consider `Cc1cc(=O)[nH]c(N/N=C/c2c(O)n(-c3ccccc3)c(=O)c3ccccc23)n1`, for which the IC90 is 13.6 µM.
The value for `Cc1ccc(C2=NN3C(=O)c4ccccc4C3C2)cc1` (centres undefined) was 35.1 µM; that for `C=C(C)C(=O)O[C@H]1C/C(C)=C\C(=O)/C=C(\C)[C@H](O)[C@@H]2OC(=O)C(=C)[C@@H]21` was 31.3 µM.
The value for `O=C(O)CSc1ncnc2c1sc1nc(-c3ccccc3)c3c(c12)CCC3` was 14.2 µM; that for `O=C1/C(=C/c2ccncc2)CCc2ccccc21` was 29.1 µM.
The value for `COc1cc(NC(=O)c2ccccc2)c(OC)cc1NC(=O)CN1CCOCC1` was 69.2 µM; that for `COc1cc(CNCCO)cc(Br)c1OCc1ccccc1Cl` was 52.7 µM.
For the compound `Cc1cc(C(=O)CSc2nnnn2-c2ccccc2)c(C)n1-c1ccc2c(c1)OCO2`, the IC90 was 60.9 µM.
The value for `CCCCC12CN3CC(C)(CN(C1)C3c1ccc([N+](=O)[O-])o1)C2=O` (centres undefined) was 23.5 µM; that for `CCCCCCCN(C(=O)CCl)c1ccccc1C` was 35.2 µM.
The value for `CCCCNC(=O)c1onc(CSc2ccc(OC)cc2)c1C(=O)O` was 27.2 µM; that for `CCN(CC)C(=O)CSc1nnc2nnc3cc(OC)ccc3n12` was 13.4 µM.
The value for `O=C(Nc1ccccc1)Nc1csc2ccccc12` was 20.9 µM; that for `Cc1ccc(C)c(CSc2nnc(C)c(=O)n2N)c1` was 20.4 µM; that for `CC1CCCN(S(=O)(=O)c2ccc(C(=O)Nc3nnc(-c4ccncc4)o3)cc2)C1` (centres undefined) was 64.8 µM.
For `O=C(/C=C/c1ccc([N+](=O)[O-])cc1)c1cccs1`, the IC90 is 12.2 µM.
The value for `Cc1c(C(=O)NCCC2=CCCCC2)sc2ncnc(N3CCCCC3C)c12` (centres undefined) was 52 µM.
The value for `CCCC(C)NC(=O)c1ccc(OCc2ccc(Cl)cc2)c(OC)c1` (centres undefined) was 11.6 µM; that for `O=c1oc(-c2ccccc2F)nc2scc(-c3ccccc3)c12` was 3.05 µM; that for `CCc1cc(C(N)=S)ccn1` was 12.8 µM.
The value for `Cc1ccccc1OCC(=O)N/N=C/c1cccc(Oc2ccc([N+](=O)[O-])cc2[N+](=O)[O-])c1` was 5.4 µM; that for `C=CCNC1=C(Cl)C(=O)N(c2cccc(Cl)c2Cl)C1=O` was 30.2 µM.
As to `Cc1ccc(Nc2nc(N)nc(CC#N)n2)cc1`, the IC90 was 92.7 µM.
The value for `CC(=O)Nc1ccc(S(=O)(=O)Nc2cccc3cccnc23)cc1` was 43.3 µM.
The value for `COc1cc(C(=O)Oc2cccnc2)cc(OC)c1OC` was 13.6 µM.
The value for `CCC(=O)N1CCN(c2ccc(NC(=S)NC(=O)c3ccc(OC)c([N+](=O)[O-])c3)cc2)CC1` was 67.8 µM; that for `O=C(Oc1c(-c2ccccc2)c(=O)n2c3c(cccc13)CC2)c1cccc([N+](=O)[O-])c1` was 62.3 µM.
As to `COCCNC(=S)N/N=C1\CC(C)CC(C)(C)C1` (centres undefined), the IC90 is 27.5 µM.
The value for `Cc1cc(C(=O)CN2C(=O)NC(C)(CC(C)C)C2=O)c(C)n1-c1ccc2c(c1)OCO2` (centres undefined) was 96.4 µM.
The value for `COc1ccc(NC(C)C(=O)N/N=C/c2ccc([N+](=O)[O-])s2)cc1` (centres undefined) was 4.79 µM; that for `C/C(CC(=O)Nc1c(C)cc(C)cc1C)=N\NC(=O)c1cnccn1` was 17.4 µM; that for `COc1ccc(OC)c(NC(=O)CS(=O)(=O)c2ccccc2)c1` was 14.3 µM.
The value for `COc1ccc(C2(CNC(=O)c3cc([N+](=O)[O-])cc([N+](=O)[O-])c3)CCCC2)cc1OC` was 1.61 µM; that for `CCNC(=S)N/N=C1\C(=O)c2cccc3cccc1c23` was 7.61 µM.
On to `CCCn1nnnc1NC(=O)COc1ccc(Cl)cc1C`, for which the IC90 is 42.9 µM.
The value for `COC(=O)C1=C(C)NC(=O)/C1=C\c1cc(C)n(-c2c(C)cccc2C)c1C` was 99.8 µM.
The value for `CCC(C)NCCOCCOc1ccc(Cl)c2ccccc12` (centres undefined) was 50.7 µM; that for `CCN(CC(=O)Nc1ccc2c(c1)OCCO2)C(=O)c1ccc([N+](=O)[O-])s1` was 26 µM; that for `Cc1cc(C)c(-c2c(O)c3ccccc3n(C)c2=O)c(C)c1` was 42.2 µM.
Consider `CCOC(=O)c1c(C)n(-c2ccccc2)c2ccc(OCCN(C)C)cc12`, for which the IC90 is 21.7 µM.
Take `O=c1oc(-c2cccs2)nc2sc3c(c12)CCCC3`: the IC90 is 29.7 µM.
`COc1ccccc1C(c1c(N)n(C)c(=O)n(C)c1=O)C(C)[N+](=O)[O-]` (centres undefined): the IC90 is 18 µM.
The value for `O=c1c2c3n(c(=S)nc2[nH]n1-c1ccccc1)CCCCC3` was 13.3 µM.
The value for `Cc1cc(=S)nc(-c2ccccn2)[nH]1` was 19.7 µM; that for `O=C(CC12CC3CC(CC(C3)C1)C2)NCc1ccc(F)cc1` was 10.4 µM; that for `COc1cccc(/C=C/c2[nH]c(=O)[nH]c(=O)c2[N+](=O)[O-])c1O` was 15.9 µM.
The value for `COc1cc(C(=S)N2CCOCC2)ccc1OC(=O)c1ccc([N+](=O)[O-])cc1[N+](=O)[O-]` was 5.92 µM.
On to `Cc1cccc2c(C(=O)n3cccn3)cc(-c3ccccc3Cl)nc12`, for which the IC90 was 26.8 µM.
For the compound `COC(=O)c1sc(-c2ccc(C(C)(C)C)cc2)cc1NC(=O)CCC(=O)O`, the IC90 is 28.7 µM.
The value for `Cn1ccnc1C(=O)Cc1ccc([N+](=O)[O-])cc1` was 22.6 µM.
The value for `O=C(Oc1c(-c2ccccc2)c(=O)n2c3c(cccc13)CC2)c1ccc(F)cc1` was 34 µM.
The value for `Cc1ccc(C(C)C)c(OCc2ccc(C(=O)N/N=C/c3ccc(C(=O)O)cc3)cc2)c1` was 49.5 µM; that for `c1ccc(-c2n[nH]c3c2CCC3)cc1` was 46.3 µM; that for `Cc1c(C=O)c(C=O)c(C)n1Cc1ccccc1` was 69.3 µM.
With `Cc1nnnn1/C(=C\c1ccccc1)C(=O)OCC(=O)NC1CCCCC1`, the IC90 was 17.6 µM.
The value for `COCCCn1c(=O)/c(=C\c2cccc(OC)c2OC)s/c1=C(/C#N)C(=O)Nc1ccc(C(=O)O)cc1` was 24.6 µM.
The value for `O=C(O)CCN1C(=O)/C(=C/c2ccc(-c3nc4ccccc4s3)o2)SC1=S` was 78.4 µM.
